We go through seven compounds from ChEMBL document CHEMBL1201862, “PubChem BioAssay data set” (2004).

Test systems include NCI-H522; U-251; OVCAR-4; MCF7; ACHN; COLO 205; HCT-15; PC-3; SW-620; MDA-N; NCI-H23; HCT-116; NCI-H460; KM12; DU-145; UO-31; MDA-MB-435; IGROV-1; SK-MEL-5; Hs-578T.
What all share (experiment): NCI anticancer screen, dose series, 48 h

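The compound was tested at five concentrations on cells cultured in 96-well plates, with a 48-hour exposure period. Abbreviation: GI50, concentration required for 50% inhibition of growth.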 Calls of active or inactive are those of the source. Cut-off read from the data, not from the text of the source: active = GI50 up to about 1.1 µM and inactive = higher.

As for `CCOc1ccc(-n2c(=O)n3c(Nc4ccc(Cl)cc4)nc4c(c(=O)n(C)c(=O)n4C)n3c2=O)cc1`, the GI50 is 18.1 µM (inactive) in the assay on NCI-H522; 32.7 µM (inactive) in the assay on U-251; 53 µM (inactive) with OVCAR-4; 57.3 µM (inactive) with MCF7; 43.4 µM (inactive) with ACHN; 21.6 µM (inactive) in the assay on COLO 205. Also, the GI50 in the assay on HCT-15 was 20.7 µM; with PC-3, 47.6 µM (inactive); in the assay on SW-620, 33.9 µM (inactive); with MDA-N, 32.7 µM (inactive); in the assay on NCI-H23, 27.5 µM (inactive); in the assay with HCT-116, 19.5 µM (inactive). Besides, the GI50 in the assay on NCI-H460 was 19.5 µM (inactive); with KM12, 16 µM (inactive); with DU-145 it was 40.9 µM (inactive); in the assay with UO-31, > 100 µM (inactive); in the assay on MDA-MB-435 it was 20.3 µM (inactive); in the assay with IGROV-1, 37.4 µM (inactive). The figures for the GI50 in the assay on SK-MEL-5 and with Hs-578T were 19 µM (inactive) and 33 µM (inactive), respectively.

As to `COc1cc(O)c2c(c1)OCC1(Cc3cc(OC)c(OC)cc31)C2=O` (stereo not given), the GI50 was 84.9 µM (inactive) in the assay with NCI-H522; > 100 µM (inactive) in the assay on U-251; 40 µM (inactive) with OVCAR-4; 31.8 µM (inactive) with MCF7; > 100 µM (inactive) in the assay with ACHN; 90.2 µM (inactive) with COLO 205. In addition, the GI50 is over 100 µM in the assay with HCT-15; > 100 µM (inactive) in the assay on PC-3; > 100 µM (inactive) with SW-620; 49.9 µM (inactive) in the assay on MDA-N; 72.9 µM (inactive) in the assay with NCI-H23; 86.1 µM (inactive) in the assay on HCT-116. For the same compound, the GI50 is > 100 µM (inactive) with NCI-H460; > 100 µM (inactive) with KM12; > 100 µM (inactive) in the assay on DU-145; > 100 µM (inactive) with UO-31; 29 µM (inactive) with MDA-MB-435; > 100 µM (inactive) with IGROV-1. Moreover, the figures for the GI50 with SK-MEL-5 and in the assay with Hs-578T were 2.37 µM (inactive) and 42.5 µM (inactive), respectively.

Regarding `O=C(CC(=O)N(C(=O)c1ccccc1)c1ccc(Cl)cc1)N/N=C\c1ccccc1O`, the GI50 in the assay with NCI-H522 was > 100 µM (inactive); with U-251, 48.2 µM (inactive); with OVCAR-4 it was > 100 µM (inactive); in the assay on MCF7, 60.7 µM (inactive); in the assay with ACHN it was 77.3 µM (inactive); in the assay on COLO 205, 85.5 µM (inactive). Further, the GI50 was 53.1 µM with HCT-15; 39.3 µM (inactive) in the assay on PC-3; > 100 µM (inactive) in the assay with SW-620; > 100 µM (inactive) with MDA-N; 43.4 µM (inactive) in the assay with NCI-H23; 30.6 µM (inactive) in the assay on HCT-116. Also, the GI50 in the assay on NCI-H460 is 96.2 µM (inactive); in the assay on KM12 it was 33.5 µM (inactive); in the assay on DU-145 it was > 100 µM (inactive); in the assay with UO-31, 38.7 µM (inactive); in the assay with MDA-MB-435 it was > 100 µM (inactive); in the assay on IGROV-1, 25.4 µM (inactive). Also, the GI50 in the assay on SK-MEL-5 is 64 µM (inactive); with Hs-578T, 26 µM (inactive).

In the case of `COc1ccc(OC)c(C2Cc3cnc4nc(N)nc(N)c4c3C2)c1` (stereo not given), the GI50 in the assay on NCI-H522 was 24.1 µM (inactive); in the assay with U-251 it was 20.7 µM (inactive); in the assay on OVCAR-4, 20.8 µM (inactive); in the assay with MCF7, 29.2 µM (inactive); in the assay on ACHN, 32.6 µM (inactive); in the assay with COLO 205, 19.5 µM (inactive). The GI50 was 29.2 µM in the assay on HCT-15; 22.4 µM (inactive) in the assay with PC-3; 33.2 µM (inactive) in the assay on SW-620; 25.8 µM (inactive) in the assay with MDA-N; 32.2 µM (inactive) in the assay on NCI-H23; 19.8 µM (inactive) in the assay on HCT-116. Moreover, the GI50 was 26.5 µM (inactive) in the assay with NCI-H460; 24.3 µM (inactive) with KM12; 29.2 µM (inactive) in the assay with DU-145; 71.9 µM (inactive) in the assay on UO-31; 26.1 µM (inactive) in the assay on MDA-MB-435; 15.8 µM (inactive) in the assay with IGROV-1. In addition, the GI50 is 29.6 µM (inactive) with SK-MEL-5 and 30.6 µM (inactive) with Hs-578T.

`COc1ccc2c(c1)[C@@H]1c3cc(OC)c(OC)cc3CCN1CCC2`: the GI50 with NCI-H522 is > 100 µM (inactive); in the assay with U-251 it was > 100 µM (inactive); in the assay on OVCAR-4, 35.3 µM (inactive); in the assay with MCF7, 83.4 µM (inactive); in the assay with ACHN, > 100 µM (inactive); in the assay on COLO 205, > 100 µM (inactive). Further, the GI50 with HCT-15 was 79.4 µM; in the assay on PC-3, 73.5 µM (inactive); in the assay with SW-620 it was > 100 µM (inactive); with MDA-N, > 100 µM (inactive); in the assay with NCI-H23 it was > 100 µM (inactive); in the assay on HCT-116, 76.2 µM (inactive). Moreover, the GI50 with NCI-H460 is 31.4 µM (inactive); in the assay with KM12 it was > 100 µM (inactive); in the assay with DU-145, > 100 µM (inactive); in the assay with UO-31, 72.9 µM (inactive); with MDA-MB-435, > 100 µM (inactive); with IGROV-1, > 100 µM (inactive). In addition, the GI50 in the assay with SK-MEL-5 is 36.7 µM (inactive); in the assay with Hs-578T it was > 100 µM (inactive).

In the case of `CS(=O)(=O)Nc1ccc(NCc2c[nH]c3ccc4ncccc4c23)cc1`, the GI50 in the assay on NCI-H522 is 18.5 µM (inactive); in the assay with U-251, 23.6 µM (inactive); with OVCAR-4, 25.9 µM (inactive); in the assay with MCF7 it was 23.1 µM (inactive); with ACHN, 20.6 µM (inactive); in the assay with COLO 205 it was 18.6 µM (inactive). Further, the GI50 is 27.2 µM with HCT-15; 19 µM (inactive) in the assay on PC-3; 32.3 µM (inactive) in the assay with SW-620; 18 µM (inactive) with MDA-N; 14.1 µM (inactive) with NCI-H23; 20.3 µM (inactive) in the assay on HCT-116. For the same compound, the GI50 in the assay with NCI-H460 was 30 µM (inactive); with KM12 it was 17.5 µM (inactive); in the assay on DU-145 it was 26.1 µM (inactive); in the assay on UO-31, 33.3 µM (inactive); in the assay on MDA-MB-435, 16.9 µM (inactive); in the assay with IGROV-1, 48.6 µM (inactive). The GI50 was 14.9 µM (inactive) in the assay on SK-MEL-5 and 22.3 µM (inactive) with Hs-578T.

On to `COCOC1C=CCCCC2=CC(C)=C(CC1)O2` (stereo not given), for which the GI50 in the assay on NCI-H522, in the assay with U-251, in the assay with OVCAR-4, in the assay on MCF7, in the assay on ACHN and with COLO 205 was > 100 µM (inactive) each time. The GI50 in the assay on HCT-15 is over 100 µM; with PC-3, > 100 µM (inactive); in the assay with SW-620 it was > 100 µM (inactive); in the assay with MDA-N, > 100 µM (inactive); with NCI-H23 it was > 100 µM (inactive); in the assay with HCT-116, > 100 µM (inactive). Further, the GI50 in the assay on NCI-H460, in the assay with KM12, in the assay with DU-145, in the assay with UO-31, in the assay on MDA-MB-435 and with IGROV-1 was > 100 µM (inactive) throughout. Moreover, the GI50 with SK-MEL-5 and with Hs-578T was > 100 µM (inactive) each time.
